In the OPERA property sets (Mansouri et al. 2018):

settings: not given

Structure (SMILES)	melting point [°C]	boiling point [°C]	log10 vapour pressure (mmHg)	ready biodegradability	log10 Henry constant (atm·m³/mol)	log10 Koc (L/kg)	log10 Koa
COC(=O)[C@@H](N)Cc1ccc(O)cc1	137	–	–	–	–	–	–
CCCCCOC(=O)CC	-73.1	169	0.556	–	–	–	–
CC(N)(CO)CO	110	–	–	–	–	–	–
COc1ccc(C(C)=O)c(OC)c1OC	15.8	296	–	–	–	–	–
NNc1ccc(S(=O)(=O)O)cc1	286	–	–	–	–	–	–
O=S1(=O)CCCC1	27.6	285	–	not readily biodegradable	–	–	–
CCCc1cccc(C)c1	-82.5	182	0.425	–	–	–	–
Nc1cc2c(cc1Cl)C(=O)c1ccccc1C2=O	282	–	–	–	–	–	–
CC=CC(C)C(C)C=CC (stereo unspecified)	-64.8	154	–	–	–	–	–
CCOC(=O)c1ccc(F)cc1	26	210	–	–	–	–	–
CCc1cnccn1	–	152	–	–	-5.61	–	–
CNC(=O)Nc1ccc(C)c(Cl)c1	–	–	–	–	–	2.1	–
CCCCCCCCCCCC(=O)Cl	-17	–	–	–	–	–	–
O=C(CCl)N1CCOCC1	37	–	–	–	–	–	–
O=C1c2ccccc2-c2ccc(O)cc21	205	–	–	–	–	–	–
c1ccc2c(c1)OCCOCCOCCOc1ccccc1OCCOCCOCCO2	104	–	–	–	–	–	–
CCN=Cc1ccccc1	–	196	–	–	–	–	–
O=P(Oc1ccccc1)(Oc1ccccc1)Oc1ccccc1	50.5	–	-5.2	readily biodegradable	–	–	–
Nc1ccn([C@@H]2O[C@H](COP(=O)(O)O)[C@@H](O)[C@@H]2O)c(=O)n1	233	–	–	–	–	–	–
CC(Br)C(=O)O (stereo unspecified)	–	203	–	–	–	–	–
CCCOc1ccc(C(=O)O)cc1	145	–	–	–	–	–	–
C=COCCCCCCCCCCCCCCCC	16	–	–	–	–	–	–
C1CCC(OC2CCCCC2)CC1	-36	242	–	–	–	–	–
C=CCn1c(=O)n(CC=C)c(=O)n(CC=C)c1=O	20.5	–	–	not readily biodegradable	–	–	–
O=c1cccc2n1CC1CNCC2C1 (stereo unspecified)	152	–	–	–	–	–	–

Structure (SMILES)	melting point [°C]	boiling point [°C]	log10 vapour pressure (mmHg)	ready biodegradability	log10 Henry constant (atm·m³/mol)	log10 Koc (L/kg)	log10 Koa
CCCCOCN(C(=O)CCl)c1c(CC)cccc1CC	-2.8	–	-5.54	–	-7.29	2.86	–
CCC(C)c1ccc(OCC2CO2)cc1 (stereo unspecified)	–	–	–	not readily biodegradable	–	–	–
CCCCOCCOCC(C)O (stereo unspecified)	–	230	–	–	–	–	–
COCC(=O)N(c1c(C)cccc1C)N1CCOC1=O	104	–	-7.61	–	–	–	–
ClC(Cl)(Cl)c1ccccc1	-5	221	-0.383	readily biodegradable	–	–	–
CC(=O)OC1CCC2(C)C(CCC3(C)C2C(=O)C=C2C4CC(C)(C(=O)O)CCC4(C)CCC23C)C1(C)C (stereo unspecified)	323	–	–	–	–	–	–
OCCS	–	158	0.244	–	–	–	–
CCC1(C)CCCC1	-144	122	–	–	–	–	–
CCOC(=O)C(F)Cl (stereo unspecified)	–	129	–	–	–	–	–
Clc1cnc(Cl)c(Cl)c1	49	219	–	not readily biodegradable	–	–	–
O=[N+]([O-])C1CCCCC1	-34	205	–	–	–	–	–
C/C=C/C(=O)OCC	–	137	–	–	–	–	–
CCCCCCCCCCCCCCCc1cccc(O)c1	53.5	–	–	readily biodegradable	–	–	–
COc1cc(C=CC=O)ccc1O	84	–	–	–	–	–	–
N#CCON=C(C#N)c1ccccc1	55	–	-0.457	–	–	–	–
CCC(C)C(C)C(C)=O (stereo unspecified)	–	158	–	–	–	–	–
CC[N+](C)(C)C(C)CC(c1ccccc1)c1ccccc1.[Br-] (stereo unspecified)	204	–	–	–	–	–	–
Nc1ccc(O)cc1	188	284	-4.4	readily biodegradable	–	–	–
Fc1cc(F)c(F)cc1F	4.5	90.2	1.75	–	–	–	–
O=c1c(Cl)c(Cl)cnn1-c1ccccc1	162	–	-4.05	–	–	–	–
CC(=O)C1=CCCCC1	73	202	–	–	–	–	–
FC(Cl)(Cl)Cl	-111	23.7	2.9	–	-1.01	–	–
CCN(CC)C(=O)c1ccccc1C(=O)N(CC)CC	36	–	–	–	–	–	–
O=S(=O)(Cl)C(Cl)(Cl)Cl	140	170	–	–	–	–	–
Cc1ccccc1CCO	2	244	–	–	–	–	–

Structure (SMILES)	melting point [°C]	boiling point [°C]	log10 vapour pressure (mmHg)	ready biodegradability	log10 Henry constant (atm·m³/mol)	log10 Koc (L/kg)	log10 Koa
FC(F)(I)C(F)(F)C(F)(F)C(F)(F)I	-9	150	–	–	–	–	–
CCCCCCOc1ccc(O)cc1	46	–	–	–	–	–	–
CCOc1ccccc1	-29.5	170	0.185	readily biodegradable	–	–	–
O=c1oc2ccccc2c(O)c1C1CC(c2ccc(-c3ccc(Br)cc3)cc2)Cc2ccccc21 (stereo unspecified)	230	–	–	–	–	–	–
FC(F)(F)C(F)(F)C(F)(F)C(F)(F)N(C(F)(F)C(F)(F)C(F)(F)C(F)(F)F)C(F)(F)C(F)(F)C(F)(F)C(F)(F)F	-50	178	-0.258	not readily biodegradable	–	–	–
Fc1cccc(F)n1	–	125	–	–	–	–	–
CN1CCc2c(c3ccccc3n2Cc2ccccc2)C1	95	–	–	–	–	–	–
OCCN1CCNCC1	–	246	–	–	–	–	–
O=[N+]([O-])c1ccc(Oc2c(Cl)cc(Cl)cc2Cl)cc1	106	–	–	not readily biodegradable	–	3.9	–
Ic1cn[nH]c1	109	–	–	–	–	–	–
O=c1cc(CO)occ1O	154	–	–	–	–	–	–
NC(=O)c1ccccc1Cl	143	–	–	–	–	1.51	–
O=C(Nc1ccccc1)C(Cl)(Cl)Cl	96	–	–	–	–	–	–
CC(=O)Oc1ccc(Br)cc1C(=O)O	60	–	–	–	–	–	–
CC[C@H](O)C(C)C	–	126	–	–	–	–	–
O=C1OC(=O)[C@H]2[C@@H]1[C@H]1C=C[C@@H]2C1	164	–	–	–	–	–	–
c1ccc(OCc2ccc(CCCN3CCOCC3)cc2)cc1	52.5	–	–	–	–	–	–
C=COC(=O)CCl	–	–	–	readily biodegradable	–	–	–
Cc1c(Br)cc(Br)cc1Br	70	290	–	–	–	–	–
Nc1ccc(Nc2ccc(N)cc2)cc1	158	–	–	–	–	–	–
CN(C)c1ccc(C2(c3ccc(N(C)C)cc3)OC(=O)c3cc(N(C)C)ccc32)cc1	–	–	–	not readily biodegradable	–	–	–
CCCCCCN(C)C(=O)COC(=O)c1ccccc1	100	–	–	–	–	–	–
CC1=CC2CC1C1C(=O)OC(=O)C21 (stereo unspecified)	–	–	–	not readily biodegradable	–	–	–
CCCCCCCCCCCCCCCCOC(=O)CCCCCCCCCCCCC	–	–	–	readily biodegradable	–	–	–
O=C(O)c1ccc(O)cc1	214	–	-6.72	readily biodegradable	–	1.43	8.08

Structure (SMILES)	melting point [°C]	boiling point [°C]	log10 vapour pressure (mmHg)	ready biodegradability	log10 Henry constant (atm·m³/mol)	log10 Koc (L/kg)	log10 Koa
CCCCCCOC(C)=O	-80.9	172	0.122	–	-3.28	–	4.58
CCCCCC=CC(C)C	–	161	–	–	–	–	–
CCCCOC(=O)C(=O)[C@H]1[C@H](C)C[C@H]2[C@@H]3C[C@H](F)C4=CC(=O)C=C[C@]4(C)[C@H]3[C@@H](O)C[C@@]21C	195	–	–	–	–	–	–
CCCCCCCCCCCCCCCCCC(CC)c1ccccc1 (stereo unspecified)	29.3	–	–	–	–	–	–
COC(=O)[C@H](Cc1ccccc1)NC(=O)[C@@H](N)CC(=O)O	246	–	–	–	–	–	–
CCCCCCCCCCCCCCCCCCBr	28.2	–	-5.23	–	–	–	–
CCCCNCCCC	-62	160	0.413	readily biodegradable	-4.05	–	–
CCN(CC)C(=O)n1cnc(S(=O)(=O)c2c(C)cc(C)cc2C)n1	115	–	-10.6	–	–	–	–
Clc1cccc(Br)c1	-21.5	196	–	–	–	–	–
CCCCCCCCCCCCCO	32.5	–	-3.36	readily biodegradable	–	–	–
c1ccc(N=C(Nc2ccccc2)Nc2ccccc2)cc1	146	–	–	–	–	–	–
C=CC(O)CCl (stereo unspecified)	–	146	–	–	–	–	–
CCOP(=S)(OCC)SCn1nnc2ccccc2c1=O	53	–	–	–	–	–	–
O=C(OCc1ccccc1)c1ccccc1	21	324	-3.65	readily biodegradable	–	–	–
CC(Oc1ccc(Oc2cnc3cc(Cl)ccc3n2)cc1)C(=O)OCC1CCCO1 (stereo unspecified)	64	–	–	–	–	–	–
CC(CCO)CC(F)(F)F (stereo unspecified)	–	159	–	–	–	–	–
CCOC(=O)C1(c2ccccc2)CCN(C)CC1	270	–	–	–	–	–	–
Clc1cncc(Cl)c1	66	–	–	–	–	–	–
O=C(O)c1cccc(C(=O)O)c1O	244	–	–	–	–	–	–
C=C(C)CCC=C(C)C	-70	143	–	–	–	–	–
O=C(OCCOC(=O)c1ccccc1)c1ccccc1	73.5	–	–	–	–	–	–
Oc1ccc(Cl)c(O)c1	107	–	–	not readily biodegradable	–	–	–
COc1cccc(F)c1	-35	159	–	–	–	–	–
CC[Si](F)(F)CC	-78.7	61	–	–	–	–	–
Cc1ccc2c(c1)CCCC2(C)C	–	240	–	–	–	–	–

Structure (SMILES)	melting point [°C]	boiling point [°C]	log10 vapour pressure (mmHg)	ready biodegradability	log10 Henry constant (atm·m³/mol)	log10 Koc (L/kg)	log10 Koa
CCCCCCCCCCCCCCCC(=O)OC/C=C(C)/C=C/C=C(C)/C=C/C1=C(C)CCCC1(C)C	28.5	–	–	–	–	–	–
C=C/C=C\CC1=C(C)[C@@H](OC(=O)[C@@H]2[C@@H](C=C(C)C)C2(C)C)CC1=O	–	–	-4.69	–	–	–	–
CC[C@H](c1ccc(O)cc1)[C@@H](CC)c1ccc(O)cc1	186	–	–	–	–	–	–
Clc1cc(Cl)c(Cl)c(-c2cc(Cl)cc(Cl)c2Cl)c1	–	–	–	–	–	6.48	–
O=C(C(F)(F)Cl)C(F)(F)Cl	–	44.5	–	–	–	–	–
Oc1ccc(Cc2ccc(O)cc2)cc1	162	–	–	not readily biodegradable	–	–	–
OCc1c(Cl)cccc1Cl	98	–	–	–	–	–	–
C=CCC1CCCCC1	–	132	–	–	–	–	–
NC(=O)Nc1ccc(Cl)c(Cl)c1	–	–	–	–	–	2.53	–
CCC1C(C)=NN=C(c2ccc(OC)c(OC)c2)c2cc(OC)c(OC)cc21 (stereo unspecified)	156	–	–	–	–	–	–
COc1cc(Cl)c(Cl)cc1O	–	–	-2.35	–	–	–	–
ClCCCCCCCl	–	204	–	–	–	–	–
CCC(C)(C)C(C)(C)CC	–	170	–	–	–	–	–
Cc1ccc([N+](=O)[O-])c(Cl)c1	24	–	–	–	–	–	–
CC(C)S(=O)(=O)O	-37	–	–	–	–	–	–
Cc1ccccc1N(CC1CO1)CC1CO1 (stereo unspecified)	–	–	–	not readily biodegradable	–	–	–
CCCCCC[Si](Cl)(Cl)Cl	–	190	–	–	–	–	–
C=NCC#N	129	–	–	–	–	–	–
CCCC(C)C(C)(C)C (stereo unspecified)	–	134	1.06	–	–	–	–
CCCCCCC(=O)OCCC	-63.5	208	–	–	–	–	–
CC1=CCC2C(=O)OC(=O)C2C1 (stereo unspecified)	–	–	–	not readily biodegradable	–	–	–
CCc1cc(C)cc(CC)c1	-74.1	205	0.0017	–	–	–	–
CCCCCCCCCCCC(=O)OC(C)C	–	–	-2.57	–	–	–	–
C/C=C(/C(=C/C)c1ccc(O)cc1)c1ccc(O)cc1	228	–	–	–	–	–	–

same assay, conditions: fish

Structure (SMILES)	log10 BCF	log10 biotransformation half-life (days)
O=S1(=O)CCCC1	0.85	–
O=P(Oc1ccccc1)(Oc1ccccc1)Oc1ccccc1	2.28	-0.76
O=[N+]([O-])c1ccc(Oc2c(Cl)cc(Cl)cc2Cl)cc1	3.31	0.75
CCCCCCCCC(C)CCC (stereo unspecified)	–	0.98
Cc1ccc2c(c1)CCCC2(C)C	–	0.83
CCCCc1cc2ccccc2c2ccccc12	–	0.29
OCc1c(Cl)cccc1Cl	0.47	-1.37
COc1cc(Cl)c(Cl)cc1O	2.03	-0.15
